Data published in patent US11465982B2, “Pyridazines” (Boehringer Ingelheim International GmbH, priority 2019, dated 2022).

What was measured:
plasma LPA = test: Assay C: In Vivo (plasma LPA reduction after oral application to rats); set-up: species or system rat; details: 5 mg/kg, plasma 8 hours post application, vs baseline, sum of LPA 16:0, 18:0, 18:1, 18:2, 20:4
Protocol: The test substance was solubilized in 0.5% natrosol supplemented with 0.015% Tween 80 for oral application to rats at a dose of 5 mg/kg. Blood samples were collected before compound administration and 8 hours post application on ice using EDTA as coagulation agent. Subsequently, plasma was prepared by centrifugation and stored until analysis at −20° C.
LPAs from plasma samples were extracted by using the procedure described by Scherer et al. (Clinical chemistry 2009, 55, 1218-22). 35 μL of heparinized plasma was mixed with 200 μL 40 mM disodium hydrogen phosphate buffer containing 30 mM citric acid (pH 4) and 1 μM 17:0 LPA (internal standard). Subsequently, 500 μL butanol was added and shaken vigorously for 10 min. Samples were centrifuged afterwards at 4000 rpm, 4° C., for 10 min. 500 μL of the organic upper phase was transferred to a fresh 96-deep-well plate and evaporated with a gentle nitrogen flow of 15 psi for 45 min. The resultant residual was dissolved in 100 μL ethanol prior to LC-MS analysis.
LC-MS Method for the Analytic of In Vivo Samples
A Triple Quad 6500 (ABSciex, Toronto, Canada) was equipped with an Agilent 1290 LC system (Agilent, Santa Clara, Calif.) a CTC autosampler and an Atlantis 50×2.1-mm, 3-μm HILIC LC column (Waters, Elstree, UK). Eluent A contained 0.2% formic acid and 50 mM ammonium formate in water, whereas eluent B consisted of 0.2% formic acid in acetonitrile. […] At 1.8 min, solvent B was set back to 95% and stayed constant for 0.7 min for re-equilibration of the column. The following LPA species were monitored (DP: declustering potential and CE: collision energy): 16:0 LPA at 409.2/152.8, DP=−150, CE=−28; 18:0 LPA at 437.3/152.8, DP=−60, CE=−28; 18:1 LPA at 435.2/152.8, DP=−40, CE=−28; 18:2 LPA at 433.2/152.8, DP=−150, CE=−28; 20:4 LPA at 457.2/152.8, DP=−100, CE=−29 and 17:0 LPA at 423.5/152.8, DP=−100, CE=−36. LPA depletion in percent was calculated based on the baseline LPA levels before test compound application. The sum of LPA refers to the species 16:0; 18:0; 18:1; 18:2 and 20:4

ATX in human whole blood = ATX in human whole blood (Homo sapiens (Human), UniProt Q13822); test: Assay B: Whole-Blood ATX Assay; type: biochemical; details: 1 h at 37° C., formation of 18:2 LPA
Protocol: 45 μL human whole-blood was supplemented with 5 μL of the test compound, dissolved in phosphate-buffered saline (concentration range 0.12 nM-100 μM). This mixture was incubated for 1 h at 37° C. and stopped by addition of 100 μL 40 mM disodium hydrogen phosphate buffer containing 30 mM citric acid (pH 4) and 1 μM 17:0 LPA (internal standard). LPA was extracted by addition of 500 μL 1-butanol, followed by 10-min centrifugation at 4000 rpm, 4° C. Prom the resultant organic supernatant, a 200 μL aliquot was transferred into a 96-deep-well plate and transferred to the RapidPire-based MS/MS measurement.
The RapidPire autosampler was coupled to a binary pump (Agilent 1290) and a Triple Quad 6500 (ABSciex, Toronto, Canada). This system was equipped with a 10-μL loop, 5-μL Waters Atlantis HILIC cartridge (Waters, Elstree, UK), 90% acetonitrile containing 10 mM ammonium acetate as eluent A and 40% acetonitrile containing 10 mM ammoniumacetate as eluent B. For details see (Bretschneider et al., SLAS Discovery, 2017, 22, 425-432). The MS was operated in negative mode with a source temperature of 550° C., curtain gas=35, gas 1=65, and gas 2=80. The following transitions and MS parameters (DP: declustering potential and CE: collision energy) for the respective LPAs were determined: 18:2 LPA at 433.2/152.8, DP=−150, CE=−27 and 17:0 LPA at 423.5/152.8, DP=−100.
The formation of 18:2 LPA was monitored and evaluated as ratio to 17:0 LPA.

Human ATX = Human ATX (Homo sapiens (Human), UniProt Q13822); test: Assay A: Biochemical ATX Assay; details: 5 nM recombinant ATX, 18:1 LPC substrate, 2-h incubation at room temperature, formation of 18:1 LPA
Protocol: 5 nM recombinant ATX (Cayman Chemicals) was supplemented to 50 mM Tris buffer (pH 8.0) containing 3 mM KCl, 1 mM CaCl2, 1 mM MgCl2 0.14 mM NaCl, and 0.1% bovine serum albumin. Test compounds were dissolved in DMSO and tested in the range of 0.1 nM to 10 μM. The enzymatic reaction (22.5 μL) was started by addition of 2.5 μL 10 μM 18:1 LPC (Avanti Lipids, Alabaster, Ala., USA). After 2-h incubation at room temperature, the reaction was stopped by addition of 20 μL water containing 500 nM 20:4 LPA as internal standard and 100 μL 1-butanol for extracting LPA. Subsequently, the plates were centrifuged at 4000 rpm, 4° C., for 2 min. The resultant upper butanol phase was directly used for injection at a RapidFire system (Agilent).
The RapidFire autosampler was coupled to a binary pump (Agilent 1290) and a Triple Quad 6500 (ABSciex, Toronto, Canada). This system was equipped with a 10-μL loop, 5-μL Waters Atlantis HILIC cartridge (Waters, Elstree, UK), 90% acetonitrile containing 10 mM ammonium acetate as eluent A and 40% acetonitrile containing 10 mM ammoniumacetate as eluent B. For details see (Bretschneider et al., SLAS Discovery, 2017). 1 The MS was operated in negative mode with a source temperature of 550° C., curtain gas=35, gas 1=65, and gas 2=80. The following transitions and MS parameters (DP: declustering potential and CE: collision energy) for the respective LPAs were determined: 18:1 LPA at 435.2/152.8, DP=−40, CE=−28 and 20:4 LPA at 457.2/152.8, DP=−100, CE=−27).
The formation of 18:1 LPA was monitored and evaluated as ratio to 20:4 LPA.

Row | IC50 (ATX in human whole blood) | IC50 (Human ATX) | Compound | LPA reduction at 8 h (plasma LPA)
1 | 2.9 nM | 4.4 nM | CC(=O)N1CC2(C1)CN(c1ccc(CNC(=O)C3(c4ccc(OCc5ccc(C(F)(F)F)nc5)nn4)CC3)cc1F)C2 [Example 1.21] | 93.8%
2 | 4.2 nM | 3.8 nM | CC(=O)N1CCN(c2ccc(CNC(=O)C3(c4ccc(OCc5ccc(C(F)(F)F)nc5)nn4)CC3)c(F)c2)CC1 [Example 1.5] | –
3 | 2.8 nM | 3.7 nM | CC(=O)N1CCC2(CC1)CN(c1ccc(CNC(=O)C3(c4ccc(OCc5ccc(C(F)F)nc5)nn4)CC3)cc1)C2 [Example 1.3] | 95.0%
4 | 4.7 nM | 2.4 nM | CC(=O)N1CCN(c2ccc(CNC(=O)C3(c4ccc(OCc5ccc(C(F)(F)F)nc5)nn4)CC3)cc2F)CC1 [Example 1.6] | –
5 | 2.5 nM | 2.5 nM | CC(=O)N1CCN(c2ccc(CNC(=O)C3(c4ccc(OCc5ccc(C(F)F)nc5)nn4)CC3)c(C(F)(F)F)c2)CC1 [Example 1.22] | –
6 | 6.7 nM | 4 nM | CC(=O)N1CCN(c2ccc(CNC(=O)C3(c4ccc(OCc5ccc(C(F)(F)F)nc5)nn4)CC3)cc2)C(C)(C)C1 [Example 1.20] | –
7 | 10.8 nM | 3.2 nM | CC(=O)N1CC2CC1CN2c1ccc(CNC(=O)C2(c3ccc(OCc4ccc(C(F)(F)F)nc4)nn3)CC2)cc1 (centres unmarked) [Example 1.18] | –
8 | 10 nM | 2.6 nM | CC(=O)N1CCC12CN(c1ccc(CNC(=O)C3(c4ccc(OCc5ccc(C(F)(F)F)nc5)nn4)CC3)cc1)C2 [Example 1.11] | –
9 | 5.7 nM | 8.9 nM | CN1CC2(CC1=O)CN(c1ccc(CNC(=O)C3(c4ccc(OCc5ccc(C(F)(F)F)nc5)nn4)CC3)cc1)C2 [Example 1.7] | –
10 | 12.1 nM | – | CC(=O)N1CCN(c2ccc(CNC(=O)C3(c4ccc(OCc5ccc(C(F)F)nc5)nn4)CC3)cn2)CC1 [Example 1.27] | –
11 | 3.1 nM | 4 nM | CC(=O)N1CCC2(CC1)CN(c1ccc(CNC(=O)C3(c4ccc(OCc5ccc(C(F)(F)F)nc5)nn4)CC3)cc1)C2 [Example 1.1, N-(4-(7-acetyl-2,7-diazaspiro[3.5]nonan-2-yl)benzyl)-1-(6-((6-(trifluoromethyl)pyridin-3-yl)methoxy)pyridazin-3-yl)cyclopropane-1-carboxamide] | 93.7%
12 | 5.4 nM | 3.4 nM | CC(=O)N1CCN(c2ccc(CNC(=O)C3(c4ccc(OCc5ccc(C(F)F)nc5)nn4)CC3)cc2)CC1 [Example 1.16] | 95.5%
13 | 4.6 nM | 3.8 nM | CC(=O)N1C[C@@H]2CN(c3ccc(CNC(=O)C4(c5ccc(OCc6ccc(C(F)F)nc6)nn5)CC4)cc3)C[C@@H]2C1 [Example 1.24] | –
14 | 4.9 nM | 3.6 nM | CC(=O)N1CCN(c2ccc(CNC(=O)C3(c4ccc(OCc5ccc(C(F)(F)F)nc5)nn4)CC3)c(C(F)(F)F)c2)CC1 [Example 1.23] | –
15 | 10.7 nM | 3.4 nM | CC(=O)N1CCC(c2ccc(CNC(=O)C3(c4ccc(OCc5ccc(C(F)(F)F)nc5)nn4)CC3)cc2)CC1 [Example 1.31] | –
16 | – | – | CCc1nc2c(C)cc(N3CCN(CC(=O)N4CC(O)C4)CC3)cn2c1N(C)c1nc(-c2ccc(F)cc2)c(C#N)s1 [Example 2 in WO2014/139882, reference compound] | 58.1%

Row | IC50 (ATX in human whole blood) | IC50 (Human ATX) | Compound | LPA reduction at 8 h (plasma LPA)
17 | 9.4 nM | 4.5 nM | CN1C(=O)NCC12CCN(c1ccc(CNC(=O)C3(c4ccc(OCc5ccc(C(F)F)nc5)nn4)CC3)cc1)CC2 [Example 1.9] | –
18 | 7.3 nM | 4.1 nM | CC(=O)N1CC2(CCN(c3ccc(CNC(=O)C4(c5ccc(OCc6ccc(C(F)F)nc6)nn5)CC4)cc3)C2)C1 [Example 1.8] | 78.2%
19 | 6.5 nM | 2.2 nM | CC(=O)N1CC2(C1)CN(c1ccc(CNC(=O)C3(c4ccc(OCc5ccc(C(F)(F)F)nc5)nn4)CC3)cc1)C2 [Example 1.17] | 96.9%
20 | 10.5 nM | 2.8 nM | CN1C(=O)NCC12CCN(c1ccc(CNC(=O)C3(c4ccc(OCc5ccc(C(F)(F)F)nc5)nn4)CC3)cc1)CC2 [Example 1.13] | –
21 | 6.4 nM | 3.2 nM | CC(=O)N1CCC2(CC1)CN(c1ccc(CNC(=O)C3(c4ccc(OCc5ccc(C(F)(F)F)nc5)nn4)CC3)nc1)C2 [Example 1.28] | –
22 | 11.1 nM | 4.9 nM | CC(=O)N1CCC2(C1)CN(c1ccc(CNC(=O)C3(c4ccc(OCc5ccc(C(F)(F)F)nc5)nn4)CC3)cc1)C2 [Example 1.14] | –
23 | 3.1 nM | 4 nM | CC(=O)N1CC2(C1)CN(c1ccc(CNC(=O)C3(c4ccc(OCc5ccc(C(F)F)nc5)nn4)CC3)cc1)C2 [Example 1.4] | 98.2%
24 | 15.5 nM | 3.4 nM | CC(=O)N1CCC2(CC1)CN(c1ccc(CNC(=O)C3(c4ccc(OCc5ccc(C(F)(F)F)nc5)nn4)CC3)cn1)C2 [Example 1.30] | –
25 | 7 nM | 2.4 nM | O=C1CCCN1C1CCN(c2ccc(CNC(=O)C3(c4ccc(OCc5ccc(C(F)(F)F)nc5)nn4)CC3)cc2)CC1 [Example 1.10] | –
26 | 10.2 nM | 4.3 nM | CC(=O)N1CCN(c2ccc(CNC(=O)C3(c4ccc(OCc5ccc(C(F)(F)F)nc5)nn4)CC3)cc2)CC1 [Example 1.12] | 83.9%
27 | 5.1 nM | 5.2 nM | CC(=O)N1CCC2(CC1)CN(c1ccc(CNC(=O)C3(c4ccc(OCc5ccc(C(F)F)nc5)nn4)CC3)nc1)C2 [Example 1.29] | –
28 | 8.3 nM | 2.2 nM | CC(=O)N1CCN(c2ccc(CNC(=O)C3(c4ccc(OCc5ccc(C(F)(F)F)nc5)nn4)CC3)cc2)CC1(C)C [Example 1.19] | –
29 | 3.9 nM | 4.1 nM | CC(=O)N1CC2(C1)CN(c1ccc(CNC(=O)C3(c4ccc(OCc5ccc(C(F)F)nc5)nn4)CC3)cc1F)C2 [Example 1.26] | –
30 | 12.4 nM | 3.2 nM | CC(=O)N1C[C@@H]2CN(c3ccc(CNC(=O)C4(c5ccc(OCc6ccc(C(F)(F)F)nc6)nn5)CC4)cc3)C[C@@H]2C1 [Example 1.25] | –
31 | 2.4 nM | 3.5 nM | CN1CC2(CC1=O)CN(c1ccc(CNC(=O)C3(c4ccc(OCc5ccc(C(F)F)nc5)nn4)CC3)cc1)C2 [Example 1.2] | 90.6%
32 | 11.8 nM | 2 nM | CC(=O)N1CCN(c2ccc(CNC(=O)C3(c4ccc(OCc5ccc(C(F)(F)F)nc5)nn4)CC3)cc2C(F)(F)F)CC1 [Example 1.15] | –
